# Molecular target: T1, human neutrophil MPO (Homo sapiens, UniProt P05164)
# T1 construct: purchased BioDesign Inc
# Experiment: MPO-mediated polymerization of DOTA(Gd) substrates: T1/T2 relaxivity change
# Assay type: biochemical
# Conditions: for maximum ratio of relaxivity increase between MPO-converted product and substrate: longitudinal and transverse, 1300-1400 U of enzyme activity
# Experimental: Reactions with HRP and MPO were carried out at room temperature in the presence of 0.5-1 mM substrate dissolved in 0.5 ml PBS containing H2O2 (2 mM). Reaction was initiated by adding an aliquot containing the enzyme (either HRP or MPO) and vortexing. After at least a 30 min incubation period T1 was measured using inversion-recovery pulse sequence Bruker Minispec (Buker Analytics, North Bellirica Mass.) at 0.47 T (20 MHz). Size-exclusion HPLC of reaction products was performed on TSK G3000SWXL macroporous column (Supelco) eluted with 0.1 M triethylammonium acetate, pH 7.0 at 1 ml/min.
# Standard 96-well plates were prepared and imaged on a 1.5 T whole body clinical General Electric Signa MRI scanner utilizing a standard 3 inch surface coil. Inversion recovery sequences were used to measure T1 relaxation and spin echo sequences were utilized to measure T2 relaxation. T2 weighted images were obtained with TR=5000 ms and TE=100 ms with a fast spin echo sequence. T1 weighted images were obtained with spin echo sequences with the following parameters: TR=100, 200, 350, or 500, TE=11. For the Matrigel™ experiments, a relatively T2 weighted image was obtained at TR=300 ms and TE=200 ms. Single-exponential models were used to obtain T1 and T2. The relaxivities were computed by normalizing relaxation rates to the concentration of gadolinium in each sample, obtained by inductive coupled plasma (ICP) analysis performed by Galbraith Laboratories.
# To determine the effect of myeloperoxidase on the substrates, we performed T1 and T2 relaxivity measurements in aqueous solutions, with and without MPO and hydrogen peroxide, at 0.47 T and 1.5 T (the results are summarized in FIGS. 3A and 3B for tyramide-DOTA(Gd) and FIGS. 4A and 4B for 5-HT-DOTA(Gd)). For reference, the two substrates were also reacted with HRP (solid symbols in FIGS. 3A and 3B and FIGS. 4A and 4B).
# T1 sequence (P05164 279-745 limits assumed): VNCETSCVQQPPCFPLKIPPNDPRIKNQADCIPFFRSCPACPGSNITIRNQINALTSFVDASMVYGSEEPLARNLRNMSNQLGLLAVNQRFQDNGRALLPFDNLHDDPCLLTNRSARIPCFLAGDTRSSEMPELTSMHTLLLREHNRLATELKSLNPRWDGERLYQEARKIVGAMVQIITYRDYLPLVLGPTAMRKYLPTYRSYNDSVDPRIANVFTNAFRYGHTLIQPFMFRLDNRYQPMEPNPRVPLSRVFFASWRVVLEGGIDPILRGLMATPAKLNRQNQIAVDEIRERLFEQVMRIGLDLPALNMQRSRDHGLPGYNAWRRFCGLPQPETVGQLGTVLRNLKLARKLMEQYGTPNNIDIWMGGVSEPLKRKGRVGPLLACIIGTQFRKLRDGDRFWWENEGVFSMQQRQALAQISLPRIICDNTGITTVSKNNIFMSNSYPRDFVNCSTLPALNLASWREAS
# T1 sequence (P05164 165-273 limits assumed): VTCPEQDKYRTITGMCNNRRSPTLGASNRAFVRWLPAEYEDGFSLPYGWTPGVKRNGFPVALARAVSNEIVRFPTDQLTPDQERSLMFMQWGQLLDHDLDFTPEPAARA
compound,measurement,setting,value
"CC(C(=O)NCC(=O)NCCc1c[nH]c2ccc(O)cc12)N1CCN(CC(=O)[O-])CCN(CC(=O)[O-])CCN(CC(=O)[O-])CC1.[Gd+3] (stereo not drawn) [5-HT-DOTA(Gd), Glycylmethyl DOTA(Gd) 5-Hydroxytryptamide]",maximum ratio of relaxivity increase between MPO-converted product and substrate,0.47 T,1.9-2 times
same,maximum ratio of relaxivity increase between MPO-converted product and substrate,1.5 T,1.6-1.7 times
same,T1 shortening relative to that by HRP,10 μL of MPO (1.6 mg/ml) vs 1 μL HRP (4 mg/ml),100%
same,T1 shortening relative to HRP-mediated T1 shortening,250-650 U MPO,Approximately 70%
same,relaxivity shortening found in the relaxation experiments,1300-2000 U,~70%
same,increase in relaxivity of polymer product,"equivalent amount of MPO, clinical imaging strength",1.7 times

# From US8153784B2, “Imaging of enzyme activity” (The General Hospital Corporation, priority 2004, dated 2012)
